# Results: ChEMBL document CHEMBL5046322, “Discovery of SHR2415, a Novel Pyrrole-Fused Urea Scaffold ERK1/2 Inhibitor” (ACS Med Chem Lett, 2022)
# What was measured:
# [1] = Clearance in ICR mouse plasma at 1 mg/kg, iv and measured after 24 hrs by LC/MS/MS analysis mg/kg, iv; format: ADME, organism-based
# [2] = Plasma protein binding in human; format: ADME, cell-free; conditions: read-out: PPB (converted)
# [3] = AUC (0 to t) in ICR mouse at 2 mg/kg, po; format: ADME, organism-based; parameters: dose 2 mg/kg; conditions: in vivo
# [4] = AUC (0 to t) in Sprague-Dawley rat at 2 mg/kg, po; format: ADME, organism-based; parameters: dose 2 mg/kg; conditions: in vivo
# [5] = Cmax in Sprague-Dawley rat plasma at 1 mg/kg, iv and measured after 24 hrs by LC/MS/MS analysis; format: ADME, organism-based; parameters: route intravenous, dose 1 mg/kg, time 24 hrs
# [6] = molecular target: Cyclin-dependent kinase 2 (Homo sapiens, UniProt P24941); assay: Inhibition of CDK2 (unknown origin)
# [7] = AUC in plasma of BALB/c mouse xenografted with human COLO 205 cells at 25 mg/kg, po for 14 days; format: ADME, organism-based; parameters: time 14 day, dose 25 mg/kg
# [8] = Half life in Sprague-Dawley rat at 2 mg/kg, po; conditions: in vivo
# [9] = Cmax in tumor of BALB/c mouse xenografted with human COLO 205 cells at 25 mg/kg, po for 14 days; format: ADME, organism-based, Neoplasm; parameters: route oral, dose 25 mg/kg, time 14 day
# COLO 205 [10] = assay: Antiproliferative activity against human COLO 205 cells assessed as reduction in cell viability for 72 hrs by cell titre glo luminescence assay; format: functional, cell-based
# [11] = Half life in Beagle dog at 2 mg/kg, po; conditions: in vivo
# [12] = Cmax in Beagle dog plasma at 0.5 mg/kg, iv and measured after 24 hrs by LC/MS/MS analysis; format: ADME, organism-based, Canis lupus familiaris; parameters: route intravenous, time 24 hrs, dose 0.5 mg/kg
# [13] = Oral bioavailability in ICR mouse at 2 mg/kg; format: ADME, organism-based; conditions: in vivo
# COLO 205 [14] = assay: Antitumor activity against human COLO 205 cells xenografted in BALB/c nude mouse assessed as TGI at 25 mg/kg, po measured after 14 days; format: functional; conditions: COLO 205, po, 336 h, time 14 day, read-out: TGI
# [15] = molecular target: Glycogen synthase kinase-3 beta (Homo sapiens, UniProt P49841); assay: Inhibition of GSK3beta (unknown origin)
# Sequence of Glycogen synthase kinase-3 beta (P49841 whole entry): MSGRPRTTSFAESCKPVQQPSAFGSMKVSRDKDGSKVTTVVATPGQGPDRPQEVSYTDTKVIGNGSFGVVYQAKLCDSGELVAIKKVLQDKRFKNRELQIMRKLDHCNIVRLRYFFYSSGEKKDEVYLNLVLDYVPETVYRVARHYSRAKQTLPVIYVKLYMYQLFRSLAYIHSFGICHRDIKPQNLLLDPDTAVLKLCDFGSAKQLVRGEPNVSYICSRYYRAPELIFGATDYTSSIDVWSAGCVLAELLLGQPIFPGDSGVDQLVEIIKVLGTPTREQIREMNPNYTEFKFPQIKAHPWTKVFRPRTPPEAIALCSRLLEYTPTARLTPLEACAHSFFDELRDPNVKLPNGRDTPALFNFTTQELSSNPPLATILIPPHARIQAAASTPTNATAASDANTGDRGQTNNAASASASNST
# [16] = Clearance in Sprague-Dawley rat plasma at 1 mg/kg, iv and measured after 24 hrs by LC/MS/MS analysis; format: ADME, organism-based
# [17] = Cmax in plasma of BALB/c mouse xenografted with human COLO 205 cells at 25 mg/kg, po for 14 days; format: ADME, organism-based; parameters: route oral, dose 25 mg/kg, time 14 day
# [18] = Clearance in Beagle dog plasma at 0.5 mg/kg, iv and measured after 24 hrs by LC/MS/MS analysis; format: ADME, organism-based, Canis lupus familiaris
# [19] = Oral bioavailability in Sprague-Dawley rat at 2 mg/kg; format: ADME, organism-based; conditions: in vivo
# in vivo = conditions: BALB/c, mouse, tumour, po, 25 mg/kg
# Description: Ratio of AUC in tumor to plasma of BALB/c mouse xenografted with human COLO 205 cells at 25 mg/kg, po for 14 days
# [20] = AUC in tumor of BALB/c mouse xenografted with human COLO 205 cells at 25 mg/kg, po for 14 days; format: ADME, organism-based, Neoplasm; parameters: time 14 day, dose 25 mg/kg
# [21] = Oral bioavailability in Beagle dog at 2 mg/kg; format: ADME, organism-based, Canis lupus familiaris; conditions: in vivo
# [22] = AUC (0 to t) in Beagle dog at 2 mg/kg, po; format: ADME, organism-based, Canis lupus familiaris; parameters: dose 2 mg/kg; conditions: in vivo
# Cytochrome P450 1A2 = molecular target: T1, Cytochrome P450 1A2 (Homo sapiens, UniProt P05177); assay: Inhibition of CYP1A2 in human liver microsomes
# T1 sequence (P05177 whole entry): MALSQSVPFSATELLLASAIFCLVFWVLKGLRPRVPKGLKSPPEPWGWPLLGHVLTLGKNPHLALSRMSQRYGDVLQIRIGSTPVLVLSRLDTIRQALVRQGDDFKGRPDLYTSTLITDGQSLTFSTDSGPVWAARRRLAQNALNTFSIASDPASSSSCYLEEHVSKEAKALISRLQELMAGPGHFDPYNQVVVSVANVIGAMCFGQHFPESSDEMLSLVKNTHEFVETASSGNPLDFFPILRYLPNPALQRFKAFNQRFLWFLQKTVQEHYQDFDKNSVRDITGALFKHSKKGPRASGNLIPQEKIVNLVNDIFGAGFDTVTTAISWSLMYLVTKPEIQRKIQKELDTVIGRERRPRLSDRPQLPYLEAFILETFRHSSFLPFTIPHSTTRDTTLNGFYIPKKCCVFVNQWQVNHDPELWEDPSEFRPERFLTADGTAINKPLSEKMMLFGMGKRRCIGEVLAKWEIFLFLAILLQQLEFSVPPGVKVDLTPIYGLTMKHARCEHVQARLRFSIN
# Cytochrome P450 2D6 = Cytochrome P450 2D6 (Homo sapiens, UniProt P10635); assay: Inhibition of CYP2D6 in human liver microsomes
# Sequence of Cytochrome P450 2D6 (P10635 whole entry): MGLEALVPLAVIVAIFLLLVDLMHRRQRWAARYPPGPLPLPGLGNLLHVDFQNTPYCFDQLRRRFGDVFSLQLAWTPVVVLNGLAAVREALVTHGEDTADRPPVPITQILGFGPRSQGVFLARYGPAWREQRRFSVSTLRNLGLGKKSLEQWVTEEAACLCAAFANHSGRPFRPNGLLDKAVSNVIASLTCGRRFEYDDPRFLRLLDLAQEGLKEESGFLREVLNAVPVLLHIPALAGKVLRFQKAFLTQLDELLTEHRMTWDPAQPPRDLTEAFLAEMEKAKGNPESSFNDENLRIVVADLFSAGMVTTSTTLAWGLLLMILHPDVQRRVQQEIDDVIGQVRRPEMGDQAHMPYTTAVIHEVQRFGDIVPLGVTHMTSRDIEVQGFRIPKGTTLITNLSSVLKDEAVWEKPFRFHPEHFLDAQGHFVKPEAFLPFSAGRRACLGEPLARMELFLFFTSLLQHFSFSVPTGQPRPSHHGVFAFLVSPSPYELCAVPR
# Cytochrome P450 3A4 = Cytochrome P450 3A4 (Homo sapiens, UniProt P08684); assay: Inhibition of CYP3A4 in human liver microsomes
# Sequence of Cytochrome P450 3A4 (P08684 whole entry): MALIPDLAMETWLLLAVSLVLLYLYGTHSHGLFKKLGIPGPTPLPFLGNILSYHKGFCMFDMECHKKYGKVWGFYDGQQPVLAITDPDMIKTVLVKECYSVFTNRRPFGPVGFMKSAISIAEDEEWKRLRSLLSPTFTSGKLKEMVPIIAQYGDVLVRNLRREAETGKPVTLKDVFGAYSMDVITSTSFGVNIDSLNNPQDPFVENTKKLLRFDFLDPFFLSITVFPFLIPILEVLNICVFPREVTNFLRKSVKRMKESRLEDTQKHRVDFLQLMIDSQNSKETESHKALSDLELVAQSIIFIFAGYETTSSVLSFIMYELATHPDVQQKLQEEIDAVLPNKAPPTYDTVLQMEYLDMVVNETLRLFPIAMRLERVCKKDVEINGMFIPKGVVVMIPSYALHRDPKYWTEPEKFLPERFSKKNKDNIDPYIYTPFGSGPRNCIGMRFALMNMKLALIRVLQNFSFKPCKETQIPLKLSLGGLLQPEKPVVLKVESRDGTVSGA
# Cytochrome P450 2C9 = Cytochrome P450 2C9 (Homo sapiens, UniProt P11712); assay: Inhibition of CYP2C9 in human liver microsomes
# Sequence of Cytochrome P450 2C9 (P11712 whole entry): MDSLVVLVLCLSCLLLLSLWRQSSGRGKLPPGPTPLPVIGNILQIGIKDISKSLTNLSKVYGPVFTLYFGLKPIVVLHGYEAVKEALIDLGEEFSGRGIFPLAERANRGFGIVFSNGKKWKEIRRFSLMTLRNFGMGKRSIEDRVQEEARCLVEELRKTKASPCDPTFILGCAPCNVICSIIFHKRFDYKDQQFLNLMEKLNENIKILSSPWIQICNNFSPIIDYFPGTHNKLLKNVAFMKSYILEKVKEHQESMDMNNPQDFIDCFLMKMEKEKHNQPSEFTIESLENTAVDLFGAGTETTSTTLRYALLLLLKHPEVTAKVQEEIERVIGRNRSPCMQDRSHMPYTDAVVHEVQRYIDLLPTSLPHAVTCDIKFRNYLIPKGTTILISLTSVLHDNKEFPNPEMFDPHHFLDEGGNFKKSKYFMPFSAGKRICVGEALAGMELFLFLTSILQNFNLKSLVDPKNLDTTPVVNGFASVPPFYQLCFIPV
# Cytochrome P450 2C19 = Cytochrome P450 2C19 (Homo sapiens, UniProt P33261); assay: Inhibition of CYP2C19 in human liver microsomes
# Sequence of Cytochrome P450 2C19 (P33261 whole entry): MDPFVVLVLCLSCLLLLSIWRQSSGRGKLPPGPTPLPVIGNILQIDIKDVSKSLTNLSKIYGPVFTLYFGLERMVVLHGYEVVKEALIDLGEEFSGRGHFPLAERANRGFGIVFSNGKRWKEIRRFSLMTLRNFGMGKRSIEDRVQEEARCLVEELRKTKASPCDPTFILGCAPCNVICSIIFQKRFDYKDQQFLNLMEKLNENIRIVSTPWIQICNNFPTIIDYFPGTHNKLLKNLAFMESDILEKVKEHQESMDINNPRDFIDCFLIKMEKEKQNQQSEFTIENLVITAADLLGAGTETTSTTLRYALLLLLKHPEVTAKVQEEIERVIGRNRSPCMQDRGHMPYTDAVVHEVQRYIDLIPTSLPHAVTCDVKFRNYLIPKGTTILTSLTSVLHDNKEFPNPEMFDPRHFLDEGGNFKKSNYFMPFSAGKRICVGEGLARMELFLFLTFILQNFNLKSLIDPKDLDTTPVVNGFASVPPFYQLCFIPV
# [23] = molecular target: Mitogen-activated protein kinase 1 (Homo sapiens, UniProt P28482); assay: Inhibition of ERK2 (unknown origin) measured after 2 hr by ADP-glo assay
# Sequence of Mitogen-activated protein kinase 1 (P28482 whole entry): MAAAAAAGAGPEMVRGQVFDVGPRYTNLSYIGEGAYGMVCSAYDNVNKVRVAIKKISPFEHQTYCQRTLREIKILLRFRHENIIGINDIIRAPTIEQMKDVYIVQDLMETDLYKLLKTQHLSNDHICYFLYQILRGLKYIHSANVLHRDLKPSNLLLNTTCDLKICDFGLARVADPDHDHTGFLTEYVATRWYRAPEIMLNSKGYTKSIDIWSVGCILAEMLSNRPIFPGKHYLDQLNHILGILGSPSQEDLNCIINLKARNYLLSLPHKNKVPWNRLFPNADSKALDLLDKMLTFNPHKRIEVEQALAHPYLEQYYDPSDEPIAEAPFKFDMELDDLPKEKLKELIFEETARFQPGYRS
# [24] = Half life in ICR mouse at 2 mg/kg, po; conditions: in vivo
# [25] = Cmax in ICR mouse plasma at 1 mg/kg, iv and measured after 24 hrs by LC/MS/MS analysis; format: ADME, organism-based; parameters: route intravenous, dose 1 mg/kg, time 24 hrs
# COLO 205 [26] = assay: Antitumor activity against human COLO 205 cells xenografted in BALB/c nude mouse assessed as TGI at 50 mg/kg, po measured after 14 days; format: functional; conditions: COLO 205, po, 336 h, time 14 day, read-out: TGI
# [27] = Cmax in tumor of BALB/c mouse xenografted with human COLO 205 cells at 50 mg/kg, po for 14 days; format: ADME, organism-based, Neoplasm; parameters: route oral, dose 50 mg/kg, time 14 day
# [28] = Ratio of AUC in tumor to plasma of BALB/c mouse xenografted with human COLO 205 cells at 50 mg/kg, po for 14 days; format: ADME, organism-based; conditions: tumor and plasma, time 14 day, read-out: Ratio AUC
# [29] = AUC in plasma of BALB/c mouse xenografted with human COLO 205 cells at 50 mg/kg, po for 14 days; format: ADME, organism-based; parameters: time 14 day, dose 50 mg/kg
# [30] = Cmax in plasma of BALB/c mouse xenografted with human COLO 205 cells at 50 mg/kg, po for 14 days; format: ADME, organism-based; parameters: route oral, dose 50 mg/kg, time 14 day
# [31] = AUC in tumor of BALB/c mouse xenografted with human COLO 205 cells at 50 mg/kg, po for 14 days; format: ADME, organism-based, Neoplasm; parameters: dose 50 mg/kg, time 14 day
# [32] = Homo sapiens, COLO 205, 72 h, read-out: IC50
structure (smiles),measurement,setting,value
Cc1cnc(Nc2ccnn2C)nc1-c1cc2n(c1)C(=O)N([C@H](CO)c1cccc(Cl)c1)C2,clearance,[1],12.2 mL/min/kg
same,fraction unbound,[2],0.016
same,AUC(0-t),[3],2460 ng·h/mL
same,AUC(0-t),[4],726 ng·h/mL
same,Cmax,[5],219 ng/mL
same,IC50,[6],99.4 nM
same,AUC at 336 h,[7],21400 ng·h/mL
same,half-life,[8],2.1 h
same,Cmax,[9],9460 ng/mL
same,IC50,COLO 205 [10]; [32],44.6 nM
same,half-life,[11],3.2 h
same,Cmax,[12],526 ng/mL
same,bioavailability,[13],90.8%
same,inhibition in vivo at 25 mg/kg,COLO 205 [14],112%
same,IC50,[15],64.3 nM
same,clearance,[16],25.3 mL/min/kg
same,Cmax,[17],5150 ng/mL
same,clearance,[18],10.5 mL/min/kg
same,bioavailability,[19],45.8%
same,Kp at 336 h,in vivo,1.42
same,AUC at 336 h,[20],30300 ng·h/mL
same,bioavailability,[21],101%
same,AUC(0-t),[22],3270 ng·h/mL
C[C@@H](CO)Nc1ncc(Cl)c(-c2cc3n(c2)C(=O)N([C@H](CO)c2cccc(Cl)c2)C3)n1,IC50,COLO 205 [10]; [32],81 nM
Cc1cnc(Nc2ccnn2C)nc1-c1cc2n(c1)C(=O)N(Cc1ccc(F)c(F)c1)C2,IC50,COLO 205 [10]; [32],293 nM
Cn1nccc1Nc1ncc(Cl)c(-c2cc3n(c2)C(=O)N([C@H](CO)c2cccc(Cl)c2)C3)n1,IC50,Cytochrome P450 1A2,> 5000 nM
same,IC50,Cytochrome P450 2D6,350 nM
same,IC50,COLO 205 [10]; [32],31.9 nM
same,IC50,Cytochrome P450 3A4,> 5000 nM
same,IC50,Cytochrome P450 2C9,> 5000 nM
same,IC50,Cytochrome P450 2C19,> 5000 nM
C[C@H](CO)Nc1ncc(Cl)c(-c2cc3n(c2)C(=O)N([C@H](CO)c2cccc(Cl)c2)C3)n1,IC50,COLO 205 [10]; colo 205,Not Active
Cn1nccc1Nc1nccc(N2CC[C@H](C(=O)N[C@H](CO)c3cccc(Cl)c3)C2)n1,IC50,COLO 205 [10]; [32],> 10000 nM
same,IC50,[23],201 nM
Cc1cnc(Nc2ccnn2C)nc1-c1cc2n(c1)C(=O)N([C@H](CO)c1ccc(F)c(Cl)c1)C2,IC50,COLO 205 [10]; [32],94.9 nM
same,IC50,[23],9.5 nM
O=C1N([C@H](CO)c2cccc(Cl)c2)Cc2cc(-c3nc(NC4CCOCC4)ncc3Cl)cn21,IC50,COLO 205 [10]; [32],104 nM
same,IC50,[23],5.8 nM
CC(C)Nc1cc(-c2cc3n(c2)C(=O)N([C@H](CO)c2cccc(Cl)c2)C3)c(Cl)cn1,IC50,COLO 205 [10]; colo 205,Not Active
same,IC50,[23],237 nM
Cc1cnc(Nc2ccnn2C)nc1-c1ccc2c(c1)CCN([C@H](CO)c1cccc(Cl)c1)C2=O,IC50,COLO 205 [10]; [32],856 nM
same,IC50,[23],9.2 nM
COc1cc(F)cc([C@@H](CO)N2Cc3cc(-c4nc(Nc5ccnn5C)ncc4C)cn3C2=O)c1,IC50,COLO 205 [10]; [32],89.6 nM
same,IC50,[23],2.4 nM
Cc1cnc(Nc2ccnn2C)nc1-c1ccc2c(c1)CN([C@H](CO)c1cccc(Cl)c1)C2=O,IC50,COLO 205 [10]; colo 205,Not Active
same,IC50,[23],4830 nM
Cc1cnc(Nc2ccnn2C)nc1-c1cc2n(c1)C(=O)N([C@H](CO)c1ccc(Cl)c(F)c1)C2,IC50,COLO 205 [10]; [32],92.2 nM
same,IC50,[23],4.8 nM
Cc1cnc(Nc2ccnn2C)nc1-c1cc2n(c1)C(=O)N([C@H](CN)c1cccc(Cl)c1)C2,IC50,COLO 205 [10]; colo 205,Not Active
same,IC50,[23],18.3 nM
Cc1cnc(NC(C)C)nc1-c1cc2n(c1)C(=O)N([C@H](CO)c1cccc(Cl)c1)C2,IC50,COLO 205 [10]; colo 205,Not Active
same,IC50,[23],188 nM
Cc1cnc(Nc2ccnn2C)nc1-c1cc2n(c1)C(=O)N([C@H](CO)c1cccc(Cl)c1)CC2,clearance,[1],63.1 mL/min/kg
same,AUC(0-t),[3],277 ng·h/mL
same,AUC(0-t),[4],258 ng·h/mL
same,Cmax,[5],84.3 ng/mL
same,half-life,[8],1.6 h
same,IC50,COLO 205 [10]; [32],77.1 nM
same,bioavailability,[13],54%
same,clearance,[16],38.5 mL/min/kg
same,half-life,[24],0.82 h
same,bioavailability,[19],29.4%
same,Cmax,[25],275 ng/mL
Cc1cnc(Nc2ccnn2C)nc1-c1cc2n(c1)C(=O)N([C@H](C)c1cccc(Cl)c1)C2,IC50,COLO 205 [10]; colo 205,Not Active
CNC[C@H](c1cccc(Cl)c1)N1Cc2cc(-c3nc(Nc4ccnn4C)ncc3C)cn2C1=O,IC50,COLO 205 [10]; [32],94.5 nM
same,IC50,[23],1.5 nM
Cn1nccc1Nc1nccc(-c2cn3c(n2)CN([C@H](CO)c2cccc(Cl)c2)C3=O)n1,IC50,COLO 205 [10]; colo 205,Not Active
same,IC50,[23],4200 nM
Cc1cnc(Nc2ccnn2C)nc1-c1cn2c(c1F)CN([C@H](CO)c1cccc(Cl)c1)C2=O,IC50,COLO 205 [10]; colo 205,Not Active
same,IC50,[23],130 nM
Cn1nccc1Nc1nccc(N2CCN(C(CO)c3cccc(Cl)c3)C(=O)C2)n1 (racemic),IC50,COLO 205 [10]; [32],> 10000 nM
same,IC50,[23],240 nM
Cc1cnc(Nc2ccnn2C)nc1N1Cc2cn(C(CO)c3cccc(Cl)c3)nc2C1 (racemic),IC50,COLO 205 [10]; [32],248 nM
same,IC50,[23],14.4 nM
Cc1cnc(Nc2ccnn2C)nc1N1Cc2nn(C(CO)c3cccc(Cl)c3)c(C)c2C1 (racemic),IC50,COLO 205 [10]; [32],964 nM
same,IC50,[23],99 nM
CC(C)Nc1cc(-c2c[nH]c(C(=O)N[C@H](CO)c3cccc(Cl)c3)c2)c(Cl)cn1 [ULIXERTINIB],inhibition in vivo at 50 mg/kg,COLO 205 [26],63%
same,Cmax,[27],13000 ng/mL
same,Kp at 336 h,[28],0.43
same,IC50,COLO 205 [10]; [32],103 nM
same,AUC at 336 h,[29],114000 ng·h/mL
same,Cmax,[30],32300 ng/mL
same,AUC at 336 h,[31],48800 ng·h/mL
